The test system of data set [1] is Porcine epidemic diarrhea virus. The data set can be described thus: Antiviral activity against PEDV 85-7 infected in Marc145 cells assessed as down regulation of Hsc70 mRNA expression at 10 uM after 24 hrs by qPCR analysis. It is filed as functional, organism-based. A general note: Real-time PCR tracks product formation cycle by cycle.
The test system is the same in data set [2]. The data set can be described thus: Antiviral activity against PEDV (NK-2) inoculated in piglets assessed as reduction in swelling sloughing and attenuation of villi at 50 mg/kg, po administered every 24 hrs for 72 hrs by HE staining based microscopic analysis. It is filed as functional, organism-based.
Data set [3] shares this test system. The data set can be described thus: Antiviral activity against PEDV 85-7 infected in Marc145 cells assessed as inhibition of viral transcription after 24 hrs by qPCR analysis. The class given is functional, organism-based. Particulars: 85-7, MARC145, 24 h.
The next data set concerns MARC145. The data set can be described thus: Suppression of Hsc70 expression in African green monkey Marc145 cells assessed as Hsc70 mRNA destabilization by measuring half life at 20 uM (reference value: 6.51 hrs). As to conditions: Chlorocebus aethiops. It is filed as functional, cell-based.
Data set [4] has as its system Porcine epidemic diarrhea virus. The data set can be described thus: Antiviral activity against PEDV (NK-2) inoculated in piglets assessed as reduction in viral replication in intestine at 50 mg/kg, po administered every 24 hrs for 72 hrs by immunofluorescence assay. The class given is functional, organism-based.
Data set [5] shares this test system. The data set can be described thus: Antiviral activity against PEDV (NK-2) inoculated in piglets assessed as reduction in multifocal diffusion of villous atrophy at 50 mg/kg, po administered every 24 hrs for 72 hrs by HE staining based microscopic analysis. The class given is functional, organism-based.
For data set [6] the test system is unchanged. The data set can be described thus: Antiviral activity against PEDV 85-7 infected in Marc145 cells assessed as reduction in PDEV protein level at 10 uM after 24 hrs by indirect immunofluorescence assay. It is filed as functional, organism-based.
Data set [7] has the same test system. The data set can be described thus: Antiviral activity against PEDV (NK-2) inoculated in piglets assessed as reduction in mortality at 50 mg/kg, po administered every 24 hrs for 72 hrs. It is filed as functional, organism-based.
Data set [8] can be described thus: Selectivity index, ratio of CC50 for cytotoxicity against African green monkey MARC145 cells to EC50 for antiviral activity against PEDV 85-7. The class given is toxicity, cell-based. As to conditions: read-out: Ratio CC50/EC50.
A short description of data set [9]: Cytotoxicity against African green monkey MARC145 cells by CCK8 assay. The class given is cell-based. As to conditions: chlorocebus aethiops. For orientation: Tetrazolium assays rely on reduction of a dye to a coloured formazan, in cell work by metabolically active cells.
Data set [10] deals with Porcine epidemic diarrhea virus. The data set can be described thus: Antiviral activity against PEDV 85-7 infected in Marc145 cells assessed as inhibition of viral replication by measuring reduction in mRNA level at 10 uM after 24 hrs by qPCR analysis. The class given is functional. Also on record: scale not given: the % may be the effect or the level left.
For data set [11] the test system is unchanged. The data set can be described thus: Antiviral activity against PEDV 85-7 infected in Marc145 cells assessed as reduction in PEDV-N protein level at 10 uM by Western blotting analysis. It is filed as functional, organism-based. Background: A western blot detects proteins with antibodies after separation by electrophoresis.
The test system is the same in data set [12]. The data set can be described thus: Antiviral activity against PEDV (NK-2) inoculated in piglets assessed as reduction in fusion of numerous villi at 50 mg/kg, po administered every 24 hrs for 72 hrs by HE staining based microscopic analysis. The class given is functional, organism-based.
For data set [13] the test system is unchanged. The data set can be described thus: Antiviral activity against PEDV 85-7 infected in Marc145 cells assessed as reduction in viral virion at 20 uM by plaque assay. It is filed as functional, organism-based.
Data set [14] has the same test system. The data set can be described thus: Antiviral activity against PEDV 85-7 infected in Marc145 cells expressing pEGFP-N1/Hsc70 protein assessed as decrease in PEDV-N-protein level at 20 uM after 24 hrs […]. It is filed as functional.
Data set [15] has the same test system. The data set can be described thus: Antiviral activity against PEDV 85-7 infected in Marc145 cells assessed as suppression of viral assembly. The class given is functional, organism-based.
Data set [16] shares this test system. The data set can be described thus: Antiviral activity against PEDV 85-7 infected in Marc145 cells assessed as down regulation of Hsc70 protein expression after 24 hrs by Western blotting analysis. The class given is functional, organism-based. Particulars: dose 0.1-10 µM.
For data set [17] the test system is unchanged. The data set can be described thus: Antiviral activity against PEDV 85-7 infected in Marc145 cells expressing pEGFP-N1/Hsc70 protein assessed as decrease in viral RNA level at 20 uM after 24 hrs by qPCR analysis. The class given is functional.
Data set [18] has the same test system. The data set can be described thus: Antiviral activity against PEDV 85-7 infected in Marc145 cells assessed as reduction in PEDV-N protein level by Western blotting analysis. It is filed as functional, organism-based. As to conditions: dose 0.1-10 µM.

pEC50: −log10 of the molar value. The source made the active and inactive calls. No cut-off for these calls is given here.

As a reminder, the pEC50 is the EC50 on a negative log10 scale, so that one unit is a factor of ten. What is called CC50 is the concentration giving 50% cytotoxicity. Take `CCc1cccc2c1N(C)Cc1cc(OC)c(OC)cc1-2`: the outcome in data set [1], in [2], in data set [4], in data set [5], in data set [6] and in data set [7] was Active. For the same compound, the outcome in data set [11], in [12] and in data set [13] was Active. Moreover, in data set [3], the pEC50 is 5.72. For the same compound, the T1/2 in the data set on MARC145 was 2.31 h. Further, the selectivity ratio in data set [8] is over 53. Further, the CC50 in data set [9] is over 100 µM. In addition, the Activity in data set [10] came out at 70%.
Turning to `CCc1cccc2c1N(C)Cc1cc(OCc3cc(C)n(C)n3)c(OCc3cc(C)n(C)n3)cc1-2`, the outcome in [1], in data set [2], in data set [15], in [4], in data set [5] and in data set [6] was Active. In addition, the result in data set [7], in data set [11], in [12] and in data set [13] was Active. For the same compound, the “fold change (FC)” value in [14] came out at 20.5; in data set [17] it was 29.3. For the same compound, the pEC50 in data set [3] was 6.14. In addition, the T1/2 in the data set with MARC145 turned out to be 1.84 h. Also, the values for the Activity result in [16], in data set [18] and in [10] were “Dose-Dependent Effect”, “Dose-Dependent Effect” and 70%, respectively. Besides, the selectivity ratio in data set [8] is over 134. The compound further displayed a CC50 in data set [9] of over 100 µM.
For the compound `CCc1cccc2c1N(C)Cc1cc(OC(C)=O)c(OC(C)=O)cc1-2`, the result in data set [1] and in [11] was Active. For the same compound, in data set [3], the pEC50 is 5.49. Besides, the T1/2 in the data set with MARC145 was 2.61 h. Further, the selectivity ratio in [8] was over 30. The CC50 in data set [9] was over 100 µM. In addition, the Activity in data set [10] is 70%.

Source of the values: ChEMBL document CHEMBL4811237, “Phenanthridine Derivative Host Heat Shock Cognate 70 Down-Regulators as Porcine Epidemic Diarrhea Virus Inhibitors” (J Nat Prod, 2021).
